In patent publication US8188135B2, “Compounds as cannabinoid receptor ligands” (priority 2008, dated 2012):

Legend:
rat CB2 [1] = molecular target: T1, rat CB2 (Rattus norvegicus, UniProt Q9QZN9); assay: rat CB2 radioligand binding assay ([3H]CP 55,940 competition); parameters: expressed in transfected cells; host or cells: HEK293; details: rat CB2 (Ki, nM), HEK293 membranes, 0.5 nM [3H]CP 55,940
T1 sequence (Q9QZN9 1-360): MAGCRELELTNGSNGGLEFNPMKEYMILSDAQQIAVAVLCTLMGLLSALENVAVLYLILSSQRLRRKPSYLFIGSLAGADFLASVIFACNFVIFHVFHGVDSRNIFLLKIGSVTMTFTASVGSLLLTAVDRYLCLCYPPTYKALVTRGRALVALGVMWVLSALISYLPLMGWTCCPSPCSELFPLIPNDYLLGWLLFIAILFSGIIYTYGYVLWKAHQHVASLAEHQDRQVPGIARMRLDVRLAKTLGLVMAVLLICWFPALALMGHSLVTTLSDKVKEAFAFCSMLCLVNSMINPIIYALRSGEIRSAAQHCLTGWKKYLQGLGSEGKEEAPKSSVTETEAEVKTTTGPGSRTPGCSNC
Method in brief: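 Membranes (20 μg protein/well) from HEK293 cells stably expressing the receptor were incubated 45 min at 30 °C with 0.5 nM [3H]CP 55,940 and five concentrations of test compound (0.01 nM–10 μM) in Tris/EDTA/MgCl2/BSA buffer, pH 7.4. Bound ligand was measured by GF/C filtration and scintillation counting; 10 μM CP 55,940 defined nonspecific binding.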

rat CB2 [2] = molecular target: T1, rat CB2; assay: rat CB2 cyclase functional assay (HitHunter cAMP); type: cell-based; parameters: expressed in transfected cells; host or cells: HEK; details: rat CB2 cyclase (EC50, nM), HEK cells, forskolin 18 μM
Method in brief: (§1)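 HEK cells expressing rat CB1 or CB2, 10,000 cells/well, incubated 20 min at 37° C with test ligands plus forskolin (37 μM for CB1, 18 μM for CB2) in DPBS with 0.01% BSA. cAMP read by enzyme-complementation luminescence after lysis; EC50 from sigmoidal dose-response fit.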

Rat CB1 = molecular target: T2, Rat CB1 (Rattus norvegicus, UniProt P20272); assay: rat CB1 cyclase functional assay (HitHunter cAMP); type: cell-based; details: Rat CB1 cyclase (EC50, nM), HEK cells, forskolin 37 μM
T2 construct: expressed in transfected cells; host or cells: HEK
T2 sequence (P20272 whole entry): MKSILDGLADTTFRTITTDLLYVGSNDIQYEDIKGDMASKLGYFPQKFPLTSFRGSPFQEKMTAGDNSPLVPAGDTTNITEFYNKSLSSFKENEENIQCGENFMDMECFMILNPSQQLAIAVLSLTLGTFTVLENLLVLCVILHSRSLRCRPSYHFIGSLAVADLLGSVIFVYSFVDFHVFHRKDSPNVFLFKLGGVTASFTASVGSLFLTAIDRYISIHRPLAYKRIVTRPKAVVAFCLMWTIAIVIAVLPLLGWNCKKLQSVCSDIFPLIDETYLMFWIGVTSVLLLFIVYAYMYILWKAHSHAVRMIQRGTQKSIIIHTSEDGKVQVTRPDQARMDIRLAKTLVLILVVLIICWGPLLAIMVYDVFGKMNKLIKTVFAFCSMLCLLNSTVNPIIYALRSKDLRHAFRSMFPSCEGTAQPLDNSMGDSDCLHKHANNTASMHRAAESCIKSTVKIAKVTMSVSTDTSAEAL
Method in brief: as §1

human CB2 receptors = molecular target: T3, human CB2 receptors (Homo sapiens, UniProt P34972); assay: human CB2 radioligand binding assay ([3H]CP 55,940 competition); details: human CB2 (Ki, nM), HEK293 membranes, 0.5 nM [3H]CP 55,940
T3 construct: expressed in transfected cells; host or cells: HEK293
T3 sequence (P34972 whole entry): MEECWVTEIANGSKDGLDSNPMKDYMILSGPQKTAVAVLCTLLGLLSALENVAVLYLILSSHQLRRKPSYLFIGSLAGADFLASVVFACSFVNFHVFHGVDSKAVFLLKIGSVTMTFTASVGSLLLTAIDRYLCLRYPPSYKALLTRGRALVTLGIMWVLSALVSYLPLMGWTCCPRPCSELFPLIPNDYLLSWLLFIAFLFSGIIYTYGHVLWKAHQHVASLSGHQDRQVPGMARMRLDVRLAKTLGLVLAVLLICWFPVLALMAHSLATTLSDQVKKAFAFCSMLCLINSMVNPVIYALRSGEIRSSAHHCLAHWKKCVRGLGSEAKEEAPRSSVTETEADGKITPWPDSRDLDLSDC
Method in brief: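 Membranes from HEK293 cells stably expressing human CB2 (5 μg protein/well) competed against 0.5 nM [3H]CP 55,940 with five concentrations of test ligand (0.01 nM to 10 μM), pH 7.4 Tris buffer with BSA, 90 min at 30 °C. Filtration and scintillation counting; nonspecific binding with 10 μM unlabeled CP 55,940.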

[3] = pharmacokinetic studies in rats; details: male, Sprague-Dawley, rat, in vivo; for clearance / half-life: iv, 3 micromole/kg; for bioavailability: po, 10 micromole/kg

## Cn1c(C(C)(C)C)c/c(=N\C(=O)c2cc(C(F)(F)F)ccc2OCCC(C)(C)O)n1C[C@H]1CCCO1 [Example 20, N-{(3E)-5-tert-butyl-1-methyl-2-[(2R)-tetrahydrofuran-2-ylmethyl]-1,2-dihydro-3H-pyrazol-3-ylidene}-2-(3-hydroxy-3-methylbutoxy)-5-(trifluoromethyl)benzamide]
Rat CB2 [1]
  Ki: 11 nM
Rat CB2 [2]
  EC50: 0.57 nM
Rat CB1
  EC50: 6850 nM
Human CB2 receptors
  Ki: 35 nM
[3]
  clearance: 13.3 mL/min/kg
  half-life: 3.9 h
  bioavailability: 27%

## Cn1c(C(C)(C)C)c/c(=N\C(=O)c2cc(C(F)(F)F)ccc2OCCC(C)(C)O)n1CC1CC1 [Example 51, N-[(3E)-5-tert-butyl-2-(cyclopropylmethyl)-1-methyl-1,2-dihydro-3H-pyrazol-3-ylidene]-2-(3-hydroxy-3-methylbutoxy)-5-(trifluoromethyl)benzamide]
Rat CB2 [1]
  Ki: 15 nM
Rat CB2 [2]
  EC50: 0.46 nM
Rat CB1
  EC50: > 27000 nM
Human CB2 receptors
  Ki: 80 nM
[3]
  clearance: 8.33 mL/min/kg
  half-life: 3.2 h
  bioavailability: 52%

## Cn1c(C2(C)CC2)c/c(=N\C(=O)c2cc(C(F)(F)F)ccc2OCCC(C)(C)O)n1C[C@H]1CCCO1 [Example 68, 2-(3-hydroxy-3-methylbutoxy)-N-{(3E)-1-methyl-5-(1-methylcyclopropyl)-2-[(2 R)-tetrahydrofuran-2-ylmethyl]-1,2-dihydro-3H-pyrazol-3-ylidene}-5-(trifluoromethyl)benzamide]
Rat CB2 [1]
  Ki: 13 nM
Rat CB2 [2]
  EC50: 0.2 nM
Rat CB1
  EC50: > 27000 nM
Human CB2 receptors
  Ki: 77 nM
[3]
  clearance: 40 mL/min/kg
  half-life: 2.2 h
  bioavailability: 25%

## Cn1c(C2(C)CC2)c/c(=N\C(=O)c2cc(C(F)(F)F)ccc2OCC(C)(C)O)n1C[C@H]1CCCO1 [Example 70, 2-(2-hydroxy-2-methylpropoxy)-N-{(3E)-1-methyl-5-(1-methylcyclopropyl)-2-[(2 R)-tetrahydrofuran-2-ylmethyl]-1,2-dihydro-3H-pyrazol-3-ylidene}-5-(trifluoromethyl)benzamide]
Rat CB2 [1]
  Ki: 4.4 nM
Rat CB2 [2]
  EC50: 0.47 nM
Rat CB1
  EC50: > 27000 nM
Human CB2 receptors
  Ki: 27 nM
[3]
  clearance: 30 mL/min/kg
  half-life: 2.3 h
  bioavailability: 46%

## CCCCn1/c(=N/C(=O)c2cc(C(F)(F)F)ccc2OCC(C)(C)O)cc(C(C)(C)C)n1C [Example 81, N-[(3E)-2-butyl-5-tert-butyl-1-methyl-1,2-dihydro-3H-pyrazol-3-ylidene]-2-(2-hydroxy-2-methylpropoxy)-5-(trifluoromethyl)benzamide]
Rat CB2 [1]
  Ki: 25 nM
Rat CB2 [2]
  EC50: 0.5 nM
Rat CB1
  EC50: 3360 nM
Human CB2 receptors
  Ki: 44 nM
[3]
  clearance: 3.33 mL/min/kg
  half-life: 5 h
  bioavailability: 61%

## Cn1c(C(C)(C)C)c/c(=N\C(=O)c2cc(C(F)(F)F)ccc2OCC(C)(C)O)n1CC1CCC1 [Example 86, N-[(3E)-5-tert-butyl-2-(cyclobutylmethyl)-1-methyl-1,2-dihydro-3H-pyrazol-3-ylidene]-2-(2-hydroxy-2-methylpropoxy)-5-(trifluoromethyl)benzamide]
Rat CB2 [1]
  Ki: 4.3 nM
Rat CB2 [2]
  EC50: 0.23 nM
Rat CB1
  EC50: 4020 nM
Human CB2 receptors
  Ki: 8.3 nM
[3]
  clearance: 5 mL/min/kg
  half-life: 5.4 h
  bioavailability: 50%

## Cn1c(C(C)(C)C)c/c(=N\C(=O)c2cc(C(F)(F)F)ccc2OCC(C)(C)O)n1CCC(F)(F)F [Example 87, N-[(3E)-5-tert-butyl-1-methyl-2-(3,3,3-trifluoropropyl)-1,2-dihydro-3H-pyrazol-3-ylidene]-2-(2-hydroxy-2-methylpropoxy)-5-(trifluoromethyl)benzamide]
Rat CB2 [1]
  Ki: 7.6 nM
Rat CB2 [2]
  EC50: 0.25 nM
Rat CB1
  EC50: 3110 nM
Human CB2 receptors
  Ki: 18 nM
[3]
  clearance: 5 mL/min/kg
  half-life: 3.2 h
  bioavailability: 64%

## Cn1c(C(C)(C)C)c/c(=N\C(=O)c2cc(Cl)ccc2OCC(C)(C)O)n1C[C@H]1CCCO1 [Example 89, N-{(3E)-5-tert-butyl-1-methyl-2-[(2R)-tetrahydrofuran-2-ylmethyl]-1,2-dihydro-3 H-pyrazol-3-ylidene}-5-chloro-2-(2-hydroxy-2-methylpropoxy)benzamide]
Rat CB2 [1]
  Ki: 7.6 nM
Rat CB2 [2]
  EC50: 0.61 nM
Rat CB1
  EC50: 2320 nM
Human CB2 receptors
  Ki: 19 nM
[3]
  clearance: 16.7 mL/min/kg
  half-life: 1.6 h
  bioavailability: 37%

## Cn1c(C(C)(C)C)c/c(=N\C(=O)c2cc(C#N)ccc2OCC(C)(C)O)n1C[C@H]1CCCO1 [Example 90, N-{(3E)-5-tert-butyl-1-methyl-2-[(2R)-tetrahydrofuran-2-ylmethyl]-1,2-dihydro-3 H-pyrazol-3-ylidene}-5-cyano-2-(2-hydroxy-2-methylpropoxy)benzamide]
Rat CB2 [1]
  Ki: 11 nM
Rat CB2 [2]
  EC50: 1.8 nM
Rat CB1
  EC50: > 27000 nM
Human CB2 receptors
  Ki: 41 nM
[3]
  clearance: 41.7 mL/min/kg
  half-life: 2.1 h
  bioavailability: 28%

## Cn1c(C(C)(C)C)c/c(=N\C(=O)c2cc(C#N)ccc2OCC(C)(C)O)n1CC1CCCC1 [Example 127, N-[(3E)-5-tert-butyl-2-(cyclopentylmethyl)-1-methyl-1,2-dihydro-3H-pyrazol-3-ylidene]-5-cyano-2-(2-hydroxy-2-methylpropoxy)benzamide]
Rat CB2 [1]
  Ki: 12 nM
Rat CB2 [2]
  EC50: 1.78 nM
Rat CB1
  EC50: > 27000 nM
Human CB2 receptors
  Ki: 47 nM
[3]
  clearance: 46.7 mL/min/kg
  half-life: 0.8 h
  bioavailability: 60%
